Source: US20250257075A1, “MACROCYCLIC INHIBITORS OF KRAS FOR THE TREATMENT OF CANCER” (Hoffmann-La Roche Inc., priority 2022, published 2025)

Assays:
KRAS G12C-BRAF complex = target: T1, KRAS G12C-BRAF complex (Homo sapiens, UniProt P01116+P62937, G12C); assay: KRAS-BRAF with CYPA (500 nM) interaction assay (TR-FRET), G12C; type: biochemical; conditions: 3 hours
T1 construct: expressed in transfected cells
In short: (§1)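 TR-FRET (Ex320 nm, Em 665/615 nm) measured compound- or compound-CYPA-dependent disruption of KRAS-BRAF complex, with CYPA at 500 nM. Disruption scored as decrease in TR-FRET ratio versus DMSO control wells.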

AGS cells (KRAS G12D) = assay: Cell viability assay, G12D; type: cell-based, human; conditions: Homo sapiens, 72 hrs, Cell Counting Kit-8
In short: (§2)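 Seed NCI-H358 5,000/well, AGS and SW620 2,000/well; overnight. Compound, 0.5% DMSO final, 72 hrs. CCK-8 2 hrs, OD450–OD650. IC50: 4-parameter fit.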

[1] = system: NCI-H358 cells (KRAS G12C); assay: Cell viability assay, G12C; type: cell-based, human; conditions: Homo sapiens; NCI-H358, 72 hrs, Cell Counting Kit-8
In short: as §2

SW620 cells (KRAS G12V) = assay: Cell viability assay, G12V; type: cell-based, human; conditions: Homo sapiens, SW-620; SW620, 72 hrs, Cell Counting Kit-8
In short: as §2

human hepatocytes = assay: Human hepatocyte stability assay; type: in vitro ADME; conditions: for Clearance Category: human hepatocytes
Procedure: The hepatocyte stability assay measures the rate of disappearance of a compound from incubations with cryopreserved suspension hepatocytes from human. Positive controls, including Midazolam, Raloxifene and Dextromethorphan, are included in every experiment. Incubations consist of 1 μM tested compound and suspension of human hepatocytes (1×10^6 cells/mL) in supplemented Williams' E Medium with 10% FBS and 0.5% Penicillin-streptomycin. The hepatocyte suspension was incubated with intermittent shaking 900 rpm at 37° C., in a 5% CO2 incubator. The reaction was stopped by adding methanol containing internal standard (2 μM Tolbutamide) at 2, 10, 20, 40, 60 and 120 minutes after compound addition, depletion of the parent compound was monitored by LC-MS/MS analysis.

[2] = target: KRAS G12D binding to BRAF (Homo sapiens, UniProt P01116+P62937, G12D); assay: KRAS-BRAF with CYPA (500 nM) interaction assay (TR-FRET), G12D; type: biochemical; conditions: 3 hours
In short: as §1

[3] = system: phosphorylation of ERK, KRAS G12C in NCI-H358 cells; assay: pERK inhibition assay, G12C; type: cell-based, human; conditions: Homo sapiens; NCI-H358, 4 hours of incubation
In short: (§3)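 NCI-H358 (G12C), AGS (G12D) and SW620 (G12V) cells were seeded overnight at 30,000, 20,000 and 30,000 cells/well, respectively. They were then treated 4 h with compound (0.5% DMSO final), fixed, and methanol-permeabilized. pERK was detected by in-cell ELISA (anti-pERK/HRP, TMB, OD450); IC50 from a 4-parameter sigmoidal fit.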

[4] = system: phosphorylation of ERK, KRAS G12D in AGS cells; assay: pERK inhibition assay, G12D; type: cell-based, human; conditions: Homo sapiens, 4 hours of incubation
In short: as §3

[5] = 1 μM compound, human hepatocytes 1×10^6 cells/mL

Sequence of KRAS G12D binding to BRAF (P01116 1-188 isoform P01116-2 G12D): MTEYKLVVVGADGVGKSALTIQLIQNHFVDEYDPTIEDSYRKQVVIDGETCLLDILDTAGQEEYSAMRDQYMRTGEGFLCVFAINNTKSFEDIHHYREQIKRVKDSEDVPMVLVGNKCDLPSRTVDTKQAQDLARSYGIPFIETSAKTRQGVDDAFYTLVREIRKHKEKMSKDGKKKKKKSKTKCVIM
Sequence of KRAS G12D binding to BRAF (P62937 whole entry): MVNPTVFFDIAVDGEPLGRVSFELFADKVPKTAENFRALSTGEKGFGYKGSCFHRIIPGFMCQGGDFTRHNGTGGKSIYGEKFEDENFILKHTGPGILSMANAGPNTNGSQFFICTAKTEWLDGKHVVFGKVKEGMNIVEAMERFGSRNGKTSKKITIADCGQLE
T1 sequence (P01116 1-188 isoform P01116-2 G12C): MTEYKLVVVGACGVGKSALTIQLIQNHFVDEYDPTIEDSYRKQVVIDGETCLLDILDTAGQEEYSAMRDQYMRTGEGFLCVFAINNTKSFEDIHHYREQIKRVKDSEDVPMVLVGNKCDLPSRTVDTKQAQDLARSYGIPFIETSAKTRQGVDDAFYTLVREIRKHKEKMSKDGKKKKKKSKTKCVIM
T1 sequence (P62937 whole entry): as the sequence (P62937 whole entry) above

| Structure (SMILES) | IC50 (KRAS G12C-BRAF complex) | IC50 (AGS cells (KRAS G12D)) | IC50 [1] | IC50 (SW620 cells (KRAS G12V)) | CL_hep (Human) (human hepatocytes; human, 1 μM) | IC50 [2] | IC50 [3] | IC50 [4] | CL_hep (Human) (human hepatocytes; [5]) | Clearance Category (human hepatocytes) |
| --- | --- | --- | --- | --- | --- | --- | --- | --- | --- | --- |
| CO[C@@H](C)c1ncc(N2CCN(C)CC2)cc1-c1c2c3cc(c(F)cc3n1CC(F)(F)F)-c1csc(n1)C[C@H](NC(=O)[C@H](C(C)C)N(C)C(=O)[C@H]1C[C@@H](C#CC(F)(F)F)C1)C(=O)N1CCC[C@H](N1)C(=O)OCC(C)(C)C2 (atropisomer, axis not shown; (M)) [Example 3, cis-N-[(1S)-1-[[(7S,13S)-24-fluoro-(20M)-20-[2-[(1S)-1-methoxyethyl]-5-(4-methylpiperazin-1-yl)-3-pyridyl]-17,17-dimethyl-8,14-dioxo-21-(2,2,2-trifluoroethyl)-15-oxa-4-thia-9,21,27,28-tetrazapentacyclo[17.5.2.1^2,5.1^9,13.0^22,26]octacosa-1(25),2,5(28),19,22(26),23-hexaen-7-yl]carbamoyl]-2-methyl-propyl]-N-methyl-3-(3,3,3-trifluoroprop-1-ynyl)cyclobutanecarboxamide] | 0.099 µM | 3.57 µM | 0.003 µM | 2.18 µM | 0.216 L/h/kg | > 10 µM | 0.007 µM | 0.378 µM |  |  |
| CCn1c(-c2cc(N3CCN(CC(F)(F)F)CC3)cnc2[C@H](C)OC)c2c3cc(c(F)cc31)-c1csc(n1)C[C@H](NC(=O)[C@H](C(C)C)N(C)C(=O)[C@H]1C[C@@H](C#CC(F)(F)F)C1)C(=O)N1CCC[C@H](N1)C(=O)OCC(C)(C)C2 (atropisomer, axis not shown; (M)) [Example 8, cis-N-[(1S)-1-[[(7S,13S)-21-ethyl-24-fluoro-(20M)-20-[2-[(1S)-1-methoxyethyl]-5-[4-(2,2,2-trifluoroethyl)piperazin-1-yl]-3-pyridyl]-17,17-dimethyl-8,14-dioxo-15-oxa-4-thia-9,21,27,28-tetrazapentacyclo[17.5.2.1^2,5.1^9,13.0^22,26]octacosa-1(25),2,5(28),19,22(26),23-hexaen-7-yl]carbamoyl]-2-methyl-propyl]-N-methyl-3-(3,3,3-trifluoroprop-1-ynyl)cyclobutanecarboxamide] | 0.118 µM | > 5 µM | 0.019 µM | > 5 µM |  | > 10 µM | 0.005 µM | > 10 µM | 0.174 L/h/kg | low (CL_hep (mL/min/kg)<6.96 is low clearance) |
| CCn1c(-c2cc(N3CCOCC3)cnc2[C@H](C)OC)c2c3cc(c(F)cc31)-c1csc(n1)C[C@H](NC(=O)[C@H](C(C)C)N(C)C(=O)[C@H]1C[C@@H](C#CC(F)(F)F)C1)C(=O)N1CCC[C@H](N1)C(=O)OCC(C)(C)C2 (atropisomer, axis not shown; (M)) [Example 11, cis-N-[(1S)-1-[[(7S,13S)-21-ethyl-24-fluoro-(20M)-20-[2-[(1S)-1-methoxyethyl]-5-morpholino-3-pyridyl]-17,17-dimethyl-8,14-dioxo-15-oxa-4-thia-9,21,27,28-tetrazapentacyclo[17.5.2.1^2,5.1^9,13.0^22,26]octacosa-1(25),2,5(28),19,22(26),23-hexaen-7-yl]carbamoyl]-2-methyl-propyl]-N-methyl-3-(3,3,3-trifluoroprop-1-ynyl)cyclobutanecarboxamide] | 0.065 µM | > 10 µM | 0.002 µM | 1.37 µM |  | > 10 µM | 0.011 µM | 3.77 µM | 0.198 L/h/kg | low (CL_hep (mL/min/kg)<6.96 is low clearance) |
| CC#CC(=O)N1CC[C@H](C(=O)N(C)[C@H](C(=O)N[C@H]2Cc3nc(cs3)-c3ccc4c(c3)c(c(-c3cccnc3[C@H](C)OC)n4CC)CC(C)(C)COC(=O)[C@@H]3CCCN(N3)C2=O)C(C)C)C1 [Example A168, reference compound] | 0.173 µM | 2.19 µM | 0.011 µM | 0.121 µM |  | > 10 µM | 0.053 µM |  | 0.528 L/h/kg | medium (16.24<CL_hep (mL/min/kg) >6.96 is medium clearance) |
